Where two headings read alike, the source gives them in different places.

Data set [1] is described as follows: Mass balance study: PK of total radioactivity in whole blood and plasma. Format: in vivo, human. The note with it: for Cmax, total radioactivity: geometric mean (%CV), n = 5. From the text: (ii) Study design. This was a single-center, open-label study of a single i.v. dose of [^14C]eravacycline to assess the mass balance recovery and PK of eravacycline. The primary objectives were to determine mass balance recovery, determine routes and rates of excretion, provide metabolite profiling and structural identification, and assess the PK of radioactivity in plasma and whole blood. Subjects were screened for inclusion in the study, including a detailed medical history, physical examination, and laboratory evaluations, in the 28 days before dosing. Eligible subjects were admitted to the clinical study unit at approximately 21:00 on the evening prior to study drug administration (day −1) and remained on site until 240 h postdose for collection of urine, feces, and blood samples. After an overnight fast, each subject received 60 mg [^14C]eravacycline containing not more than 3.8 MBq (105 μCi) ^14C as a single i.v. infusion over 60 min.
(iv) Determination of radioactivity. […] Plasma and whole-blood concentrations of total radioactivity were determined using an analytical method at Quotient Bioresearch (Rushden, Northamptonshire, UK). The lower limit of quantification (LLOQ) for total radioactivity was 11 to 13 ng equivalents (equiv)/ml in plasma and 41 to 46 ng equiv/g in whole blood.
(vi) Study assessments. PK parameters were determined for total radioactivity in plasma and whole blood. Eravacycline, TP-498, and TP-6208 concentrations in plasma were quantified using a validated assay with internal standards. […]
(viii) Study analysis. Descriptive statistics (mean, median, standard deviation [SD], percent coefficient of variation [%CV], minimum, maximum, number, geometric mean, and geometric %CV) were calculated for all concentration data. Pharmacokinetic parameters were calculated using Phoenix WinNonlin v6.3 (Certera USA, Inc.).

Data set [2] can be described thus: Drug interaction study with itraconazole (CYP3A4 inhibitor): plasma PK of i.v. eravacycline and metabolites. It is filed as in vivo, human. The note with it: for AUC(0-t) / Cmax / clearance / half-life / Vd: human, plasma, iv, mean ± SD, n = 10; for Vd: read-out: Vss. On the procedure:
Two single-center, open-label studies were conducted to evaluate the effects of itraconazole (CYP3A4 inhibitor) and rifampin (CYP3A4 inducer) on the pharmacokinetics of i.v. eravacycline in healthy subjects.
(ii) Study design. Each study included a 28-day screening period, a 13-day treatment period (19 days for rifampin), and an end-of-study visit 2 weeks after the last dose of study drug. Eravacycline was administered in the morning as a 1-mg/kg i.v. infusion over 60 min on day 1 with a second dose on day 10 (itraconazole study) or day 17 (rifampin study). For the itraconazole study, 200 mg oral itraconazole was administered q12h on day 8 and q24h on days 9 and 10. For the rifampin study, 600 mg oral rifampin was administered q24h from day 8 to day 17. All study treatments were administered in the fasting state.
(iii) Study assessments. Blood samples for PK analysis of eravacycline and its metabolites, TP-498, TP-6208, and TP-034, were collected predose and 1, 2, 4, 6, 8, 12, 24, 36, and 48 h after the start of the i.v. infusion on day 1 and day 10 (itraconazole) or day 1 and day 17 (rifampin). Safety assessments included AEs, clinical laboratory safety tests (hematology, serum chemistry, electrolytes, coagulation, urinalysis, and lipid profile), vital signs, physical examinations, and 12-lead ECG.
Concentrations of eravacycline, TP-498, and TP-6208 in human plasma samples were measured by LC-tandem MS after solid-phase extraction over a calibration range of 5.00 to 500 ng/ml. The LLOQ for eravacycline, TP-498, TP-6208, and TP-034 in human plasma was 5.00 ng/ml. Samples with eravacycline initial concentrations above the upper limit of quantification (500 ng/ml) were diluted appropriately with control blank human plasma and reanalyzed. There was no interference seen when human plasma was fortified with eravacycline, TP-498, TP-6208, and either itraconazole or rifampin.
(iv) Pharmacokinetic analysis. PK assessments included Cmax, Tmax, AUC0–24, AUC0–t, t1/2, CL, and Vss. Actual sampling time was used for PK calculations. PK parameters were derived by noncompartmental analysis. Descriptive statistics were calculated for analyte concentrations at each evaluation time point and for all quantitative PK parameters of eravacycline, TP-498, TP-6208, and TP-034 for day 1 and day 10 (day 17 for rifampin). The effect of itraconazole or rifampin on the PK profile of i.v. eravacycline was evaluated by comparing log-transformed PK parameters (Cmax and AUC0–t) associated with the administration of study drug on day 1 and day 10 (itraconazole) or day 1 and day 17 (rifampin) using paired t tests. The ratio and 90% confidence interval (CI) were presented after back transformation to the original scale. Pharmacokinetic variables were calculated using WinNonlin Professional.

Setting [3] is: eravacycline plus itraconazole (day 10) vs eravacycline alone (day 1), 1 mg/kg i.v.
Setting [4] is: day 1, eravacycline 1 mg/kg i.v. alone.
Where [5] appears, read: day 10, eravacycline 1 mg/kg i.v. with itraconazole.

`CN(C)[C@@H]1C(O)=C(C(N)=O)C(=O)[C@@]2(O)C(O)=C3C(=O)c4c(O)c(NC(=O)CN5CCCC5)cc(F)c4C[C@H]3C[C@@H]12` [eravacycline]: the “Cmax, total radioactivity” value in data set [1] (plasma) was 893 (18.0) ng equiv/ml. In addition, in data set [1] (plasma, majority of subjects), the “time postdose total radioactivity remained quantifiable” value is recorded as “up to 241 h”. Also, in data set [1] (whole blood), the “Cmax, total radioactivity” value is listed as 911 (14.5) ng equiv/ml. Further, in data set [2] (setting [3]), the “Ratio of geometric mean AUC0–t, day 10/day 1” value was determined as 134.3% and the “Ratio of geometric mean Cmax, day 10/day 1” value is listed as 107.9%. In data set [2] (eravacycline plus itraconazole day 10 vs day 1), the “decrease of CL with itraconazole” value is on record as “about 30%”. In addition, in data set [2] (setting [4]), the AUC(0-t) (usually exposure summed from dosing to a finite time, without extrapolation to infinity) is 4320 ng·h/mL; the Cmax (commonly the peak of the concentration-time curve) turned out to be 1100 ng/mL; the clearance – broadly, a measure of how efficiently the substance is removed, as volume per time – turned out to be 3.79 ± 1.03 mL/min/kg; the half-life (as a rule, the time needed for the level to fall by half in the phase considered) was 14 ± 2.4 h. The Vd in data set [2] (setting [4]) is 3.42 ± 0.73 L/kg. For the same molecule, in data set [2] (setting [5]), the AUC(0-t) is 5700 ng·h/mL, the Cmax is 1160 ng/mL, the clearance was 2.57 ± 0.5 mL/min/kg and the half-life is 19 ± 3.6 h. For the same molecule, the Vd in data set [2] (setting [5]) was 3.37 ± 0.56 L/kg.

These data come from paper PMC6395926, “Mass Balance and Drug Interaction Potential of Intravenous Eravacycline Administered to Healthy Subjects” (Antimicrobial Agents and Chemotherapy, 2019).
